Measurements taken from PMC10442743 (Dalton Transactions (Cambridge, England : 2003), 2023).
Read-outs that look alike come from different tables or passages of the source.

How the values were obtained:
[1] = test system: L929; assay: MTT cytotoxicity assay, L929 fibroblasts (and selectivity index); assay type: cell-based, mouse; conditions: for SI (selectivity index): IC50 L929 divided by average IC50 of the breast cancer cell lines
Description: (§1) The cytotoxicity of 1–11CA was assessed against human breast cancer MCF-7 and MDA-MB-231 cells, and non-tumorigenic adherent mouse fibroblast connective tissue L929 cells using the MTT assay after 24 and 72 h (Tables S5 ^† and Table 1, respectively).
(§2) Then, necessary dilutions were made using the supplement DMEM, to prepare the range of tested concentrations. Since DMSO was used to solubilize the compounds, a supplemented DMEM + DMSO (at the same percentage as in the sequential dilutions) was considered as a control in the 3-[4,5-dimetylthiazole-2-yl]-2,5-diphenyltetrazolium bromide (MTT) assay.
(§3) L929, MCF-7, and MDA-MB-231 cell lines were cultured in DMEM supplemented with 10% (v/v) FBS and 1% (v/v) of penicillin–streptomycin. The cells were incubated in a humidified chamber at 37 °C under saturated air with a 5% CO2 atmosphere. Cells were passed at 80%–90% of confluency with 0.25% (w/v) trypsin and the cell culture media was changed every 2–3 days.
(§4) The compounds were tested on two breast cancer cell lines (MCF-7 and MDA-MB-231) and L929 fibroblasts, used as a reference for the safety evaluation according to ISO 10993-1:2009 “Biological evaluation of medical devices”. Cells were seeded on sterile 96-well plates at 50 000 cells per well (L929) and 20 000 cells per well (MCF-7 and MDA-MB-231) in supplemented DMEM medium (100 μL) for 24 h. The culture medium was removed and new media containing different concentrations of the compounds (0–1000 μM) was added to the wells (100 μL). Control cells were incubated under the same conditions in the absence of a compound. Cells were incubated for 24 and 72 h under the same conditions described above. Then, the medium was removed, and the cells were incubated with 3-(4,5-dimethylthiazol-2-yl)-2,5-diphenyltetrazolium bromide (MTT; 0.5 mg mL^−1) for 3 h. After this time, the medium was removed, and formazan crystals were solubilized with DMSO (100 μL per well). The absorbance in each well was read on a SynergyTM HT Multimode microplate reader (BioTek Instruments; Winooski, VT, USA) at 570 and 630 nm (for background correction), and the cell viability was calculated according to the following equation (eqn (1)):1 [drawing 3] where OD570(sample) and OD630(sample) are the optical densities of the solutions containing the compounds and OD570(control) and OD630(control) are controls without compound.
(§5) Each apoptosis value determination represents the mean ± standard deviation of 2 independent assays. The IC50 values were obtained using GraphPad Prism software and ANOVA (analysis of variance) was performed to determine the statistical difference between the IC50 values of different cell lines.

[2] = test system: MCF-7; assay: MTT cytotoxicity assay, MCF-7 cells; assay type: cell-based, human
Description: as §1, §2, §3, §4, §5

[3] = test system: MDA-MB-231; assay: MTT cytotoxicity assay, MDA-MB-231 cells; assay type: cell-based, human
Description: as §1, §2, §3, §4, §5

[4] = Solubility in water (ICP-MS); conditions: 25 °C, limit of detection = 5 ppt
Description: sonication, the mixtures were stirred at 25 °C for 1 h. The saturated solutions were filtered
to remove any insoluble solids, dissolved in 0.5 mL of MilliQ water, and analyzed using
ICP-MS. Samples were submitted to acidic digestion with 2 mL of concentrated HNO3
min to heat to 100°C and keep at 100°C for 60 min. After the digestion, the sample
volumes were precisely adjusted to 5 mL with MilliQ water. Samples were further diluted
30 times with 2% HNO3 solution and their Ru content was analyzed by ICP-MS using
standard mode on NexIon 350 D ICP-MS instrument (PerkinElmer). Yttrium was added
as an internal standard at a concentration of 2 ppb to all the solution and Ru quantitation
was performed using an external calibration curve with standards in the 0.05-50 ppb

[5] = Molar conductivity in acetonitrile; assay type: physicochemical; conditions: 1 mM in acetonitrile, 25 °C
Description: The molar conductivity (ΛM, reported as S·cm2·mol–1) of solutions of 11CA in acetonitrile (1 mM) were measured in a Radiometer Copenhagen CDM92 equipped with a conductivity cell CDC641T glass platinum electrode at room temperature (25 °C). The conductivity of the pure solvent was used as standard controls.
Table S3. Solubility in water at 25 °C, n-octanol/water partition coefficient and molar conductivity of the 11CA. * below limit of detection = 5 ppt.

[6] = n-octanol/water partition coefficient (shake-flask, ICP-MS)
Description: The saturated solutions were filtered
(DigiPREP Jr. 15ml, 40 Pos, SCP Science). The digestion program was the following: 15
After the digestion, the sample
Samples were further diluted
range. All measurements were performed in triplicates.
lipophilicity of a compound. This assay was performed following the Shake-flask method
organic and aqueous phase. Aliquots of each phase were taken and analyzed separately
range. The partition coefficient was calculated as P!"=
respectively. All measurements were performed in triplicates.

[7] = test system: ctDNA; assay: Circular dichroism / induced circular dichroism with calf thymus DNA; conditions: DNA, 24 h, 37 °C
Description: Calf thymus (ct) DNA (Merck®) was used to perform the circular dichroism assay to detect conformational changes in the ctDNA induced by the compounds. CD spectral data was collected on a Chirascan™ V100 (Applied Photophysics) spectropolarimeter equipped with a large area Avalanche photodiodes detector and computer-controlled thermoelectrical cell holder using a 1 cm path length quartz cuvette. CD spectra of ctDNA in the absence and presence of different concentrations of 11Cl were recorded at wavelengths ranging from 320 to 190 nm under constant nitrogen flush at 25 °C. For each CD spectrum, the number of scans was set to 5, and spectral data were collected at 0.1 ms intervals. Additionally, methyl green (MG) and 4′,6-diamidino-2-phenylindole (DAPI), and propidium iodide (PI) were analyzed as minor and major groove binders and as an intercalator, respectively, to help identify the binding mode of 11Cl to DNA. Samples were prepared in 10 mM Tris-HCl buffer (pH 7.6) with 1 mM EDTA. The concentration of ctDNA was fixed at 100 μM (concerning base pairs) and the ctDNA to 11Cl ratio was varied between 0 and 1. The samples were incubated for 24 h at 37 °C and then analyzed in the CD spectropolarimeter.

[8] = sodium counteranion salts, 24 h, read-out: IC50 in L929 cell line Mean ± SD 24 h
[9] = sodium counteranion salts, 72 h, read-out: IC50 in L929 cell line Mean ± SD 72h
[10] = sodium counteranion salts, 24 h, read-out: IC50 in MCF-7 cell line Mean ± SD 24 h
[11] = sodium counteranion salts, 72 h, read-out: IC50 in MCF-7 cell line Mean ± SD 72h
[12] = sodium counteranion salts, 24 h, read-out: IC50 in MDA-MB-231 cell line Mean ± SD 24 h
[13] = sodium counteranion salts, 72 h, read-out: IC50 in MDA-MB-231 cell line Mean ± SD 72h
[14] = 24 h exposure, MTT, read-out: IC50 (µM) (average ± standard deviation) 24 h L929
[15] = 72 h exposure, MTT, read-out: IC50 (μM) (average ± standard deviation) 72 h L929
[16] = 24 h exposure, MTT, read-out: IC50 (µM) (average ± standard deviation) 24 h MCF-7
[17] = 72 h exposure, MTT, read-out: IC50 (μM) (average ± standard deviation) 72 h MCF-7
[18] = 24 h exposure, MTT, read-out: IC50 (µM) (average ± standard deviation) 24 h MDA-MB-231
[19] = 72 h exposure, MTT, read-out: IC50 (μM) (average ± standard deviation) 72 h MDA-MB-231

| Structure (SMILES) | IC50 [1, 8] [µM] | IC50 [1, 9] [µM] | IC50 [2, 10] [µM] | IC50 [2, 11] [µM] | IC50 [3, 12] [µM] | IC50 [3, 13] [µM] | SI (selectivity index) ([1]; 24 h) | IC50 [1, 14] [µM] | SI (selectivity index) ([1]; 72 h) | IC50 [1, 15] [µM] | IC50 [2, 16] [µM] | IC50 [2, 17] [µM] | IC50 [3, 18] [µM] | IC50 [3, 19] [µM] | other results |
| --- | --- | --- | --- | --- | --- | --- | --- | --- | --- | --- | --- | --- | --- | --- | --- |
| c1ccc([B-](c2ccccc2)(c2ccccc2)c2ccccc2)cc1 [NaBPh4, reference compound] | 186 ± 11 | 55 ± 4 | 217 ± 44 | 102 ± 14 | 441 ± 61 | 149 ± 13 |  |  |  |  |  |  |  |  |  |
| Cc1cccc[c]1[Ru+]([Cl])([PH](c1ccccc1)(c1ccccc1)c1ccccc1)[PH](c1ccccc1)(c1ccccc1)c1ccccc1.O=[N+]([O-])[O-] [Compound 11NO3] |  |  |  |  |  |  | 0.7 | 3.7 ± 0.4 | 11.1 | 1.04 ± 0.05 | 5.9 ± 0.5 | 0.078 ± 0.005 | 4.6 ± 0.3 | 0.109 ± 0.009 | Solubility (μM) [4]: 268 ± 42 µM; Solubility (μg/mL) [4]: 218 ± 34 µg/mL; Conductivity (molar conductivity) [5]: 141 S·cm2/mol; LogPow [6]: 1.57 ± 0.29 |
| Cc1ccccc1.[Cl][Ru]([Cl])[PH](c1ccccc1)(c1ccccc1)c1ccccc1 [Compound 9] |  |  |  |  |  |  | 2.3 | 544 ± 12 | 1.5 | 70 ± 4 | 304 ± 19 | 52 ± 7 | 164 ± 2 | 44 ± 3 | Solubility (μM) [4]: 65 ± 8 µM; Solubility (μg/mL) [4]: 34 ± 4 µg/mL |
| [F][Sb-]([F])([F])([F])([F])[F].[Na+] [NaSbF6, reference compound] | 693 ± 53 | 180 ± 22 | > 1000 | 234 ± 24 | 689 ± 61 | 236 ± 13 |  |  |  |  |  |  |  |  |  |
| F[P-](F)(F)(F)(F)F.[Na+] [NaPF6, reference compound] | 759 ± 77 | 297 ± 24 | > 2000 | 311 ± 27 | > 1000 | 329 ± 17 |  |  |  |  |  |  |  |  |  |
| O=S(=O)([O-])C(F)(F)F.[Na+] [NaOTf, reference compound] | > 1000 | 159 ± 20 | > 2000 | 279 ± 30 | > 2000 | 354 ± 27 |  |  |  |  |  |  |  |  |  |
| CC[N+](C)(CC)CCC[n+]1c(-c2ccccc2)c2cc(N)ccc2c2ccc(N)cc21.[I-].[I-] [PI, propidium iodide] |  |  |  |  |  |  |  |  |  |  |  |  |  |  | CD band 220 nm (hydrogen bonding), intensity change [7]: Unchanged; CD band 220 nm (hydrogen bonding), wavelength shift [7]: Blue shift; CD band 246 nm (helicity), intensity change [7]: Hyperchromic; CD band 246 nm (helicity), wavelength shift [7]: Unchanged; CD band 268−280 nm (base-pair stacking interactions), intensity change [7]: Hyperchromic; CD band 268−280 nm (base-pair stacking interactions), wavelength shift [7]: Unchanged |
| Cc1cccc[c]1[Ru+]([Cl])([PH](c1ccccc1)(c1ccccc1)c1ccccc1)[PH](c1ccccc1)(c1ccccc1)c1ccccc1.F[B-](F)(F)F [Compound 11BF4] |  |  |  |  |  |  | 0.8 | 3.8 ± 0.4 | 6.8 | 1.13 ± 0.05 | 5.4 ± 0.6 | 0.14 ± 0.01 | 4.3 ± 0.4 | 0.19 ± 0.01 | Solubility (μM) [4]: 5 ± 2 µM; Solubility (μg/mL) [4]: 4 ± 1 µg/mL; Conductivity (molar conductivity) [5]: 124 S·cm2/mol; LogPow [6]: 1.60 ± 0.20 |
| F[B-](F)(F)F.[Na+] [NaBF4, reference compound] | 923 ± 77 | 386 ± 49 | > 2000 | 343 ± 39 | > 2000 | 347 ± 19 |  |  |  |  |  |  |  |  |  |
| Cc1cccc[c]1[Ru+]([Cl])([PH](c1ccccc1)(c1ccccc1)c1ccccc1)[PH](c1ccccc1)(c1ccccc1)c1ccccc1.F[P-](F)(F)(F)(F)F [Compound 11PF6] |  |  |  |  |  |  | 2.5 | 10 ± 1 | 1.1 | 0.17 ± 0.01 | 3 ± 0.3 | 0.15 ± 0.01 | 5 ± 0.1 | 0.16 ± 0.01 | Solubility (μM) [4]: 0.6 ± 0.2 µM; Solubility (μg/mL) [4]: 0.6 ± 0.2 µg/mL; Conductivity (molar conductivity) [5]: 150 S·cm2/mol; LogPow [6]: 1.91 ± 0.23 |
| O=[N+]([O-])[O-].[Na+] [NaNO3, reference compound] | > 1000 | 331 ± 57 | > 2000 | 262 ± 38 | > 2000 | 334 ± 23 |  |  |  |  |  |  |  |  |  |
| C[NH+](C)Cc1ccccc1.[Cl-].[Cl][Ru]([Cl])[PH]12CN3CN(CN(C3)C1)C2 [Compound 3] |  |  |  |  |  |  | 1.8 | 749 ± 45 | 1.5 | 84 ± 5 | 463 ± 19 | 51 ± 4 | 357 ± 7 | 60 ± 3 |  |
| Cc1ccc(C(C)C)cc1.O=C1[O][Ru]([PH]23CN4CN(CN(C4)C2)C3)[O]C1=O [Compound 7] |  |  |  |  |  |  |  | 570 ± 18 |  | 104 ± 4 | 407 ± 17 | 62 ± 4 | 513 ± 16 | 83 ± 5 |  |
| Cc1c(C)c(C)[c-](C)c1C.[Cl][Ru+]([PH]12CN3CN(CN(C3)C1)C2)[PH]12CN3CN(CN(C3)C1)C2 [Compound 2] |  |  |  |  |  |  | 1.6 | 537 ± 29 | 1.1 | 64 ± 4 | 403 ± 9 | 51 ± 6 | 286 ± 7 | 63 ± 3 |  |
| Cc1ccc(CCC(=O)O)cc1.O=C1[O][Ru]([PH]23CN4CN(CN(C4)C2)C3)[O]C1=O [Compound 8] |  |  |  |  |  |  |  | 572 ± 33 |  | 50 ± 3 | 213 ± 8 | 41 ± 5 | 284 ± 7 | 50 ± 2 |  |
| [Cl-].[Na+] [NaCl, reference compound] | 782 ± 55 | 274 ± 31 | > 2000 | 280 ± 33 | > 2000 | 398 ± 38 |  |  |  |  |  |  |  |  |  |
| Cc1ccc(C(C)C)cc1.[Br][Ru]([Br])[PH]12CN3CN(CN(C3)C1)C2 [Compound 6] |  |  |  |  |  |  | 1.8 | 670 ± 60 | 1.2 | 82 ± 3 | 376 ± 15 | 74 ± 7 | 388 ± 12 | 63 ± 5 |  |
